{"source": "patent US12156885B2", "about": "“Methods and compositions for treating heart conditions” (priority 2020, dated 2024)", "key": {"[1]": {"assay": "Treatment of PVCs in a patient with lithium carbonate in combination with metoprolol (cardiac event monitor / EKG)", "type": "in vivo, human", "details": "lithium carbonate 300 mg per day (150 mg BID) in combination with metoprolol 150 mg per day", "excerpt": "Trial 1 was started on Aug. 23, 2019 and stopped on Jan. 1, 2020; Trial 2 was started on Jan. 12, 2020 and stopped on Apr. 21, 2020; and Trial 3 was started on May 8, 2020 and was ongoing at the time the instant application was filed.\nThe first trial was 109 days. The second trial was 43 days."}, "[2]": {"details": "patient; lithium carbonate 300 mg per day (Li2CO3 150 mg BID)"}}, "data": [{"smiles": "O=C([O-])[O-].[Li+].[Li+]", "note": "[lithium carbonate]", "values": [{"measurement": "PVCs reduced, each of three trials", "setting": "[1]; each trial, for the duration of treatment with lithium", "value": "at least 90%"}, {"measurement": "PVCs reduced (reduction of PVCs)", "setting": "[1]; within a few days, for the duration of lithium treatment", "value": "about 90%"}, {"measurement": "lithium serum level", "setting": "[2]", "value": "about 0.2"}]}]}
